Assay results: publication PMC8286840, “Identifying SARS-CoV-2 antiviral compounds by screening for small molecule inhibitors of Nsp3 papain-like protease” (Biochemical Journal, 2021)
Where a name gives a salt, the structure may show the parent alone. Read-outs that look alike come from different tables or passages of the source.

Assays:
[1] = biological target: T1, SARS-CoV-2 PLpro (nsp3 1564–1878) (Severe acute respiratory syndrome coronavirus 2, UniProt P0DTD1); assay: biochemical; set-up: FRET-quenched peptide (Pro3) cleavage by PLpro, 10 min pre-incubation, slope over 20 min, normalised to no-compound control; details: high concentration screen, read-out: % of control remaining
[2] = biological target: T1, SARS-CoV-2 PLpro (nsp3 1564–1878); assay: biochemical; set-up: FRET-quenched peptide (Pro3) cleavage by PLpro, 10 min pre-incubation, slope over 20 min, normalised to no-compound control; details: low concentration screen, read-out: % of control remaining

CC(C)C[C@H](NC(=O)[C@@H](O)[C@H](N)Cc1ccccc1)C(=O)O [Bestatin hydrochloride]
remaining activity at 3.75 µM ([1]; Well no.=273): 97.1% | remaining activity at 1.25 µM ([2]; Well no.=273): 96.2%

CCOC(=O)[C@H](CCc1ccccc1)N[C@@H](C)C(=O)N1Cc2cc(OC)c(OC)cc2C[C@H]1C(=O)O [Moexipril (hydrochloride)]
remaining activity at 3.75 µM ([1]; Well no.=8028): 97.8% | remaining activity at 1.25 µM ([2]; Well no.=8028): 98.4%

Nc1ccc(S(=O)(=O)Nc2nccs2)cc1 [Sulfathiazole]
remaining activity at 3.75 µM ([1]; Well no.=4937): 95.6% | remaining activity at 1.25 µM ([2]; Well no.=4937): 98.9%

CCCCCCCCCCCCCCCC(=O)NCCc1ccc(O)c(O)c1 [Palmitoyl dopamine]
remaining activity at 3.75 µM ([1]; Well no.=4261): 98.2% | remaining activity at 1.25 µM ([2]; Well no.=4261): 101%

O=C(O)C1=CC(=C(c2ccc(O)c(C(=O)O)c2)c2ccc(O)c(C(=O)O)c2)C=CC1=O [Aurintricarboxylic acid]
remaining activity at 3.75 µM ([1]; Well no.=249): 109% | remaining activity at 1.25 µM ([2]; Well no.=249): 97.6%

CN(C)c1ccc(O)c2c1C[C@H]1C[C@H]3[C@H](N(C)C)C(O)=C(C(N)=O)C(=O)[C@@]3(O)C(O)=C1C2=O [Minocycline]
remaining activity at 3.75 µM ([1]; Well no.=1995): 103% | remaining activity at 1.25 µM ([2]; Well no.=1995): 103%

C=C1CC[C@@H]2[C@](C)(CO)[C@H](O)CC[C@@]2(C)[C@@H]1C/C=C1/C(=O)OC[C@H]1O [Andrographolide]
remaining activity at 3.75 µM ([1]; Well no.=3435): 96.9% | remaining activity at 1.25 µM ([2]; Well no.=3435): 93.4%

CC(C)CN(C[C@@H](O)[C@H](Cc1ccccc1)NC(=O)O[C@H]1CO[C@H]2OCC[C@H]21)S(=O)(=O)c1ccc(N)cc1 [Darunavir Ethanolate]
remaining activity at 3.75 µM ([1]; Well no.=8284): 94.1% | remaining activity at 1.25 µM ([2]; Well no.=8284): 90.9%

OCc1cnc[nH]1 [4-Imidazolemethanol hydrochloride]
remaining activity at 3.75 µM ([1]; Well no.=608): 96.7% | remaining activity at 1.25 µM ([2]; Well no.=608): 97.2%

Fc1ccc(C(OCCN2CCN(CCCc3ccccc3)CC2)c2ccc(F)cc2)cc1 [GBR-12909 dihydrochloride]
remaining activity at 3.75 µM ([1]; Well no.=590): 98.5% | remaining activity at 1.25 µM ([2]; Well no.=590): 98.5%

Cc1cc2c(cc1CC(=O)c1sccc1S(=O)(=O)Nc1onc(C)c1Cl)OCO2 [Sitaxentan sodium (TBC-11251)]
remaining activity at 3.75 µM ([1]; Well no.=4887): 98.3% | remaining activity at 1.25 µM ([2]; Well no.=4887): 95.6%

CC(C)[C@H](N)C(=O)OCCOCn1cnc2c(=O)nc(N)[nH]c21 [Valaciclovir]
remaining activity at 3.75 µM ([1]; Well no.=2012): 97.7% | remaining activity at 1.25 µM ([2]; Well no.=2012): 98.7%

COc1cc2nc(N3CCN(C(=O)C4=CC5C=CC4CC5)CC3)nc(N)c2cc1OC (stereo not drawn) [Prazobind]
remaining activity at 3.75 µM ([1]; Well no.=1311): 105% | remaining activity at 1.25 µM ([2]; Well no.=1311): 104%

NC1=N[C@@]2(c3cc(NC(=O)c4ccc(F)cn4)ccc3F)COC[C@H]2CS1 [LY2886721]
remaining activity at 3.75 µM ([1]; Well no.=4774): 102% | remaining activity at 1.25 µM ([2]; Well no.=4774): 99.9%

Cc1ccc(-c2c(-c3nn(C)c4ncnc(N5CC[C@H](N6CCCCC6)C5)c34)cnn2C)cc1 [PF-4981517]
remaining activity at 3.75 µM ([1]; Well no.=4875): 93.8% | remaining activity at 1.25 µM ([2]; Well no.=4875): 99.5%

OC[C@@H](O)[C@@H](O)[C@H](O)[C@@H](O)CO [D-Sorbitol]
remaining activity at 3.75 µM ([1]; Well no.=6253): 112% | remaining activity at 1.25 µM ([2]; Well no.=6253): 115%

CCNC1=Nc2ccc(Cl)cc2C(C)(c2ccccc2)O1 (stereo not drawn) [Etifoxine hydrochloride]
remaining activity at 3.75 µM ([1]; Well no.=6081): 104% | remaining activity at 1.25 µM ([2]; Well no.=6081): 106%

COc1ccc(C2=N[C@@H](c3ccc(Cl)cc3)[C@@H](c3ccc(Cl)cc3)N2C(=O)N2CCNC(=O)C2)c(OC(C)C)c1 [Nutlin (3)]
remaining activity at 3.75 µM ([1]; Well no.=6356): 101% | remaining activity at 3.75 µM ([1]; Well no.=7836): 99.3% | remaining activity at 1.25 µM ([2]; Well no.=6356): 98.9% | remaining activity at 1.25 µM ([2]; Well no.=7836): 103%

Nc1nccc(-c2c(-c3ccc(F)cc3)ncn2C2CCCCC2)n1 [4-[1-cyclohexyl-4-(4-fluorophenyl)-1H-imidazol-5-yl]-2-pyrimidinamine dihydrochloride]
remaining activity at 3.75 µM ([1]; Well no.=5961): 102% | remaining activity at 1.25 µM ([2]; Well no.=5961): 102%

CC(C)(C)NCC(O)c1ccccc1Cl (stereo not drawn) [Tulobuterol hydrochloride]
remaining activity at 3.75 µM ([1]; Well no.=1291): 106% | remaining activity at 1.25 µM ([2]; Well no.=1291): 105%

CCCCCCCC/C=C\CCCCCCCCCCCCC(=O)O [14(Z)-Tricosenoic acid]
remaining activity at 3.75 µM ([1]; Well no.=4498): 93.7% | remaining activity at 1.25 µM ([2]; Well no.=4498): 99.3%

CCN(CC)Cc1ccc(C(=O)N(CCc2ccccc2OC)[C@@H]2CCNC2)cc1 [PF429242 (dihydrochloride)]
remaining activity at 3.75 µM ([1]; Well no.=6996): 97.5% | remaining activity at 1.25 µM ([2]; Well no.=6996): 102%

CCC(Sc1nnc2c(n1)[nH]c1ccccc12)C(=O)N1c2ccccc2Sc2ccccc21 (stereo not drawn) [Inauhzin]
remaining activity at 3.75 µM ([1]; Well no.=6158): 91.7% | remaining activity at 1.25 µM ([2]; Well no.=6158): 100%

N[C@@H]1C[C@H]1c1ccccc1 (racemic) [Tranylcypromine]
remaining activity at 3.75 µM ([1]; Well no.=1564): 95.7% | remaining activity at 1.25 µM ([2]; Well no.=1564): 95.7%

Cn1c(=O)c2c(ncn2CC(O)CO)n(C)c1=O (stereo not drawn) [Dyphylline]
remaining activity at 3.75 µM ([1]; Well no.=8092): 95.3% | remaining activity at 1.25 µM ([2]; Well no.=8092): 93.8%

O=C(Oc1cccc(F)c1OC(=O)c1cccc(O)c1)c1cccc(O)c1 [WZB117]
remaining activity at 3.75 µM ([1]; Well no.=8770): 101% | remaining activity at 1.25 µM ([2]; Well no.=8770): 102%

CCC1=C(C)CN(C(=O)NCCc2ccc(S(=O)(=O)NC(=O)N[C@H]3CC[C@H](C)CC3)cc2)C1=O [Glimepiride]
remaining activity at 3.75 µM ([1]; Well no.=2178): 97% | remaining activity at 1.25 µM ([2]; Well no.=2178): 96.4%

Brc1c(NC2=NCCN2)ccc2nccnc12 [UK 14,304 (tartrate)]
remaining activity at 3.75 µM ([1]; Well no.=6572): 102% | remaining activity at 1.25 µM ([2]; Well no.=6572): 98.5%

Nc1ncnc2c1ncn2[C@@H]1O[C@H](CO)C[C@H]1O [Cordycepin]
remaining activity at 3.75 µM ([1]; Well no.=7860): 95.9% | remaining activity at 1.25 µM ([2]; Well no.=7860): 101%

NC(CO)C(=O)NNCc1ccc(O)c(O)c1O (stereo not drawn) [Benserazide hydrochloride]
remaining activity at 3.75 µM ([1]; Well no.=367): 96.5% | remaining activity at 1.25 µM ([2]; Well no.=367): 96.9%

Cc1ncc(COP(=O)(O)O)c(C=O)c1O [Pyridoxal phosphate]
remaining activity at 3.75 µM ([1]; Well no.=6389): 101% | remaining activity at 1.25 µM ([2]; Well no.=6389): 103%

CN(C)CCC=C1c2ccccc2CCc2ccccc21 [Amitriptyline.HCl]
remaining activity at 3.75 µM ([1]; Well no.=2122): 104% | remaining activity at 1.25 µM ([2]; Well no.=2122): 102%

C[C@]12CC[C@@H]3c4ccc(OC(=O)c5ccccc5)cc4CC[C@H]3[C@@H]1CC[C@@H]2O [Estradiol Benzoate]
remaining activity at 3.75 µM ([1]; Well no.=5134): 104% | remaining activity at 1.25 µM ([2]; Well no.=5134): 105%

Cc1ncc(CNC(=O)N(CCCl)N=O)c(N)n1 [Nimustine hydrochloride]
remaining activity at 3.75 µM ([1]; Well no.=861): 97.2% | remaining activity at 1.25 µM ([2]; Well no.=861): 96.9%

COC(=O)C(C)(N)Cc1ccc(O)cc1 (racemic) [alpha-Methyl-DL-tyrosine methyl ester hydrochloride]
remaining activity at 3.75 µM ([1]; Well no.=1068): 96.5% | remaining activity at 1.25 µM ([2]; Well no.=1068): 97%
